Data reported in patent US8822541B2, “Use of targeted nitroxide agents in mitigating or treating radiation injury” (University of Pittsburgh—Of the Commonwealth System of …, priority 2008, dated 2014).

Experiments:
[1] = system: caspases 3 and 7; assay: Caspases 3 and 7 activity in gut mucosa after hemorrhagic shock; format: in vivo, rat; settings: 10 μM intraluminal, vs vehicle
Protocol: Caspases 3 and 7 activity assay. Caspases 3 and 7 activity was measured using a commercially available assay kit, Caspase GIo™ 3/7 assay kit (Promega, Madison, Wis.). Briefly, 50 μl of rat gut mucosa homogenate (20 jug protein) was mixed with 50 μl of Caspase-Glo™ reagent and incubated at room temperature for 1 hour. At the end of incubation period, the luminescence of each sample was measured using a plate reading chemiluminometer (ML1000, Dynatech Laboratories, Horsham, Pa.). Activity of caspases 3 and 7 was expressed as luminescence intensity (arbitrary units per mg protein). Protein concentrations were determined using the BioRad assay (Bio-Rad Laboratories, Inc., Hercules, Calif.).
In the subsequent series of in vivo studies, the affect of intraluminal XJB-5-131 on hemorrhage-induced peroxidation of phospholipids in intestinal mucosa was examined. […] In a preferred embodiment, 0.3 mL of test solution filled the lumen of each ileal compartment.
After two hours of HS, samples of ileal mucosa from the gut sacs filled with the vehicle and XJB-5-131 were obtained and compared with ileal mucosa of normal MECs. All samples were assayed with caspase 3 or caspase 7 activity as well as the peroxidation of phosphatidylcholine (“PC”), phosphatidylethanolamine (“PE”), phosphatidylserine (“PS”), and cardiolipin (“CL”), summarized in FIG. 7.

[2] = system: mouse embryonic cells; assay: EPR-based analysis of integration and reduction of nitroxide Gramicidin S-peptidyl conjugates in MECs; format: cell-based; settings: following incubation with solutions of the compounds
Protocol: Electron paramagnetic resonance (“EPR”) spectroscopy was used to monitor the cellular delivery of compounds 5a and 5b shown in FIG. 3 in mouse embryonic cells (“MEC”).
The following conditions were used during the EPR-based analysis of the integration and reduction of nitroxide Gramicidin S-peptidyl conjugates in MECs. The MECs at a concentration of 10 million MECs per mL were incubated with 10 μM of 4-AT and compound 5a, respectively. Recovered nitroxide radicals in whole cells, mitochondria, and cytosol fractions were resuspended in phosphate buffer saline (“PBS”) in the presence and absence, respectively, of 2 μM K3Fe(CN)6.

[3] = system: Ercc1−/cond; K14-Cre mice; assay: Photoaging after UV-B in Ercc1−/cond; K14-Cre mice; format: in vivo, mouse; settings: 80 ug in cream daily for five days
Protocol: As a measure of the effect of XJB-5-131 on photoaging, Ercc1^−/cond; K14-Cre mice, which are missing ERCC1 only in the skin, were shaved, treated with a depilatory then irradiated with UV-B light to induce a sunburn (500 J/m^2, the median erythemal dose). Subsequently, the mice were treated with XJB-5-131 (80 ug) emulsified in a cream daily for five days.

[4] = system: 32D cl 3 cells; assay: Clonogenic radiation survival curves of 32D cl 3 cells (PLDR study); format: cell-based, mouse; design: key to D0: D0 in Gy, from single-hit multitarget model
Protocol: (§1) 32D cl 3 cells were resuspended at 1×10^5 cells/mL in 10×100-mm tubes and divided into three groups: radiation only, post-irradiation treatment with 10 μM JP4-039, and post-irradiation treatment with 10 μM TEMPO. Cells were irradiated to doses ranging from 0 to 8 Gy and were plated immediately after irradiation.
as §1, with “5×10^5” for “1×10^5”, “then incubated in exponentially growing colonies (flasks) for 24, 48 and 72 h in a high-humidity incubator at 37° C. with 95% air/5% CO2.” for “plated immediately after irradiation.”
32D cl 3 cells were resuspended at 5×10^5 cells/mL in 10×100-mm tubes. Cells were irradiated to doses ranging from 0 to 8 Gy and were then centrifuged at 1500 RPM for 10 minutes and incubated in vertical tubes held tight in pellets with a total of 5×10^5 cells/pellet for 24, 48 and 72 h in a high-humidity incubator at 37° C. with 95% air/5% CO2.
Cells incubated under either logarithmic or PLDR conditions were resuspended at 24, 48 and 72 h after irradiation, and cell viability was assessed using an automated cell viability counter (Beckman Coulter, Fullerton, Calif.). Subsequently, at 24, 48, 72 h, cells in pellets and flasks were resuspended and treated with 10 μM JP4-039, 10 μM TEMPO, or no treatment and were plated in triplicate in semisolid methylcellulose-containing medium at viable cell concentrations ranging from 500-40,000 cells/mL. Cells were incubated in a high-humidity incubator at 37° C. with 95% air/5% CO2 for 7 d and colonies of greater than 50 cells were scored according to published methods (Epperly M W, Gretton J E, Sikora C A, Jefferson M, Bernarding M, Nie S, et al.: Mitochondrial localization of superoxide, dismutase is required for decreasing radiation-induced cellular damage. Radiat Res. 160: 568-578, 2003).
Data from radiation survival curves were analyzed using the linear-quadratic and single-hit, multitarget models (Epperly M, et al., Prevention of late effects of irradiation lung damage by manganese superoxide dismutase gene therapy. Gene Ther. 5: 196-208, 1998). Results are presented as the mean±standard error of the mean from at least three measurements. Student's t test and two-way ANOVA were used to compare means of different groups where appropriate.

[5] = 0 hours, 10 μM post-irradiation

Row | Structure (SMILES) | caspase 3 and 7 activity after hemorrhagic shock [1] | concentration in the mitochondria of cultured mouse embryonic cells [2] | appearance of UV-B irradiated skin [3] | D0 [4, 5] | Ñ [4, 5] | radiation mitigation ([4]; 48 or 72 h after irradiation) | D0 ([4]; 24 hours (Flask), 10 μM) | Ñ ([4]; 24 hours (Flask), 10 μM) | D0 ([4]; 24 hours (Pellet), 10 μM) | Ñ ([4]; 24 hours (Pellet), 10 μM)
1 | CC(C)C[C@@H](/C=C/[C@H](Cc1ccccc1)C(=O)N1CCC[C@H]1C(=O)N[C@H](C(=O)N[C@@H](CCCNC(=O)OCc1ccccc1)C(=O)NC1CC(C)(C)N([O])C(C)(C)C1)C(C)C)NC(=O)OC(C)(C)C [XJB-5-131] | significantly decreased | concentrated in the mitochondria | much more smooth and healthy | – | – | – | – | – | – | –
2 | CC(C)C[C@@H](/C=C/CC(=O)NC1CC(C)(C)N([O])C(C)(C)C1)NC(=O)OC(C)(C)C [JP4-039, TEMPO-4-yl-(S,E)-5-(tert-butoxycarbonylamino)-7-methyloct-3-enamide] | – | – | – | 0.91 ± 0.11 | 37.43±7.50 | no statistically significant radiation mitigation | 1.22 ± 0.16 | 10.35±0.33 | 1.12 ± 0.27 | 18.49±3.90
